{"source": "paper PMC10123100", "about": "“Single-molecule visualization of stalled replication-fork rescue by the Escherichia coli Rep helicase” (Nucleic Acids Research, 2023)", "key": {"[1]": {"biological_target": "T1, Rep helicase (His6-Rep WT) (Escherichia coli, UniProt P09980)", "T1 construct": "full-length with His6 tag kept, plasmid pZX2198, expressed in E. coli BL21(DE3)/pLysS; monomer, multimer on long ssDNA", "T1 sequence (P09980 whole entry)": "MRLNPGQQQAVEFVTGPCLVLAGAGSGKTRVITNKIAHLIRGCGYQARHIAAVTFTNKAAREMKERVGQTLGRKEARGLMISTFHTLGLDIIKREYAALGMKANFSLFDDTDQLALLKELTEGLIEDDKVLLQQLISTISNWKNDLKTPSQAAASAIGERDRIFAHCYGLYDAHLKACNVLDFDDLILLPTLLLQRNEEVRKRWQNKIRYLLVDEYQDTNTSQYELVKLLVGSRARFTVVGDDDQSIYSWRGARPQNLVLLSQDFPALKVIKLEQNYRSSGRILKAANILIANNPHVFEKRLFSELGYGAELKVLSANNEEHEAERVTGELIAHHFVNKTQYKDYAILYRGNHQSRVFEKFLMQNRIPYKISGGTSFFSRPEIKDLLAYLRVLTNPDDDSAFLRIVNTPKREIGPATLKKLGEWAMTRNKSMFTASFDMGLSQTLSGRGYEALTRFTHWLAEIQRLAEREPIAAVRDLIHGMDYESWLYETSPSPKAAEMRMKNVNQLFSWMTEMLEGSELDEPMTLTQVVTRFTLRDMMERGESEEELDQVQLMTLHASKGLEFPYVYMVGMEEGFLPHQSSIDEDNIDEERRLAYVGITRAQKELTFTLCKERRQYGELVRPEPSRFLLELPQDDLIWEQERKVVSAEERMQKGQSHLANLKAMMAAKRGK", "assay": "SPR, nucleotide-stimulated dissociation of Rep from immobilised dT35", "type": "binding", "conditions": "200 uM ATP, 20 nM Rep, biotinylated dT35, Mg2+, pH 7.6, 20 C"}, "[2]": {"biological_target": "T1, Rep helicase (His6-Rep WT)", "assay": "SPR, nucleotide-stimulated dissociation of Rep from immobilised dT35", "type": "binding", "conditions": "200 uM ATP, 20 nM Rep, biotinylated dT35, Mg2+, pH 7.6, 20 C", "remark": "listed apart in the source"}}}
{"smiles": "Nc1ncnc2c1ncn2[C@@H]1O[C@H](COP(=O)(O)OP(=O)(O)OP(=O)(O)O)[C@@H](O)[C@H]1O", "note": "[ATP]", "values": [{"measurement": "SPR, nucleotide-stimulated dissociation of Rep from immobilised dT35", "setting": "[1]", "value": "ATP, but not ADP or AMP-PNP, stimulated the dissociation of Rep WT and Rep ΔC33"}, {"measurement": "SPR, nucleotide-stimulated dissociation of Rep from immobilised dT35", "setting": "[2]", "value": "ATP, but not ADP or AMP-PNP, stimulated the dissociation of Rep WT and Rep ΔC33"}]}
